According to the supplement of paper PMC4862054:

Experiments:
Settings in all cases: incubation time: 72 h
CAL-148 [1] = assay: normalised viability (% of control), CellTiter-Blue; higher = more viable cells (about 100 = DMSO control)
Experimental: (§1)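 DSRT, CellTiter-Blue viability, 72 h incubation. Signal is normalised to DMSO and benzethonium chloride controls. Value is the normalised response at dose 6.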

CAL-51 [2] = assay: as above
Experimental: as §1

DU-4475 [3] = assay: as above
Experimental: as §1

CAL-85-1 [4] = assay: as above
Experimental: as §1

MDA-MB-453 [5] = assay: as above
Experimental: as §1

HDQ-P1 [6] = assay: as above
Experimental: as §1

SK-BR-3 = assay: normalised viability (% of control), CellTiter-Blue; higher = more viable cells (100 = DMSO, 0 = benzethonium chloride kill control)
Experimental: (§2)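 DSRT, CellTiter-Blue viability, 72 h incubation. Signal is normalised to DMSO and benzethonium chloride controls. Value is the normalised response at dose 1.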

BT-474 = assay: as above
Experimental: as §2

CAL-148 [7] = assay: as above
Experimental: as §2

CAL-51 [8] = assay: as above
Experimental: as §2

HCC1143 = assay: as above
Experimental: as §2

MDA-MB-231 = assay: as above
Experimental: as §2

DU-4475 [9] = assay: as above
Experimental: as §2

BT-549 = assay: as above
Experimental: as §2

CAL-85-1 [10] = assay: as above
Experimental: as §2

HCC1599 = assay: as above
Experimental: as §2

MDA-MB-453 [11] = assay: as above
Experimental: as §2

MDA-MB-436 = assay: as above
Experimental: as §2

Hs578T = assay: as above
Experimental: as §2

MFM-223 [12] = assay: as above
Experimental: as §2

MDA-MB-468 = assay: as above
Experimental: as §2

CAL-120 = assay: as above
Experimental: as §2

HCC1937 [13] = assay: as above
Experimental: as §2

HDQ-P1 [14] = assay: as above
Experimental: as §2

MCF-10A = assay: drug sensitivity score (DSS), CellTox Green (DSS (AUC-based score)); higher = stronger drug effect (viability inhibition or cytotoxicity); extreme values may be limits of the assay
In short: (§3)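 Compound was dispensed into 384-well plates at 5 concentrations in 10-fold steps spanning a 10,000-fold range chosen for each compound, and 20 µl of breast cancer cell suspension was added before 72 h of incubation. CellTox Green fluorescence was read at 485/520 nm, followed by CellTiter-Glo luminescence after 10 min at room temperature. Values on each plate were normalised to 0.1 % DMSO and a positive kill control. The drug sensitivity score came from the area under the fitted dose-response curve.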

MFM-223 [15] = assay: as above
In short: as §3

HCC1937 [16] = assay: as above
In short: as §3

**Q.** Which normalised viability (CAL-148 [1]; 300 nM) does the source give for `O=C(O)C1(C(=O)O)CCC1.[NH2-].[NH2-].[Pt+2]` [Carboplatin] here?
**A.** 106%

**Q.** What about the normalised viability (CAL-51 [2]; 300 nM) of the same compound?
**A.** 106%

**Q.** And the normalised viability (DU-4475 [3]; 300 nM)?
**A.** 87.6%

**Q.** And the normalised viability (CAL-85-1 [4]; 300 nM)?
**A.** 86.1%

**Q.** What about the normalised viability (MDA-MB-453 [5]; 300 nM) of the same compound?
**A.** 107%

**Q.** What about the normalised viability (HDQ-P1 [6]; 300 nM) of the same compound?
**A.** 87.6%

**Q.** What about the normalised viability (SK-BR-3; 1 nM) of the same compound?
**A.** 105%

**Q.** And the normalised viability (BT-474; 1 nM)?
**A.** 109%

**Q.** And the normalised viability (CAL-148 [7]; 1 nM)?
**A.** 96.9%

**Q.** What about the normalised viability (CAL-51 [8]; 1 nM) of the same compound?
**A.** 99.2%

**Q.** And the normalised viability (HCC1143; 1 nM)?
**A.** 90.7%

**Q.** And the normalised viability (MDA-MB-231; 1 nM)?
**A.** 105%

**Q.** What about the normalised viability (DU-4475 [9]; 1 nM) of the same compound?
**A.** 104%

**Q.** What about the normalised viability (BT-549; 1 nM) of the same compound?
**A.** 95.2%

**Q.** What about the normalised viability (CAL-85-1 [10]; 1 nM) of the same compound?
**A.** 90.2%

**Q.** What about the normalised viability (HCC1599; 1 nM) of the same compound?
**A.** 91.3%

**Q.** And the normalised viability (MDA-MB-453 [11]; 1 nM)?
**A.** 98.7%

**Q.** And the normalised viability (MDA-MB-436; 1 nM)?
**A.** 102%

**Q.** What about the normalised viability (Hs578T; 1 nM) of the same compound?
**A.** 125%

**Q.** What about the normalised viability (MFM-223 [12]; 1 nM) of the same compound?
**A.** 96.6%

**Q.** What about the normalised viability (MDA-MB-468; 1 nM) of the same compound?
**A.** 100%

**Q.** And the normalised viability (CAL-120; 1 nM)?
**A.** 84.1%

**Q.** What about the normalised viability (HCC1937 [13]; 1 nM) of the same compound?
**A.** 80.9%

**Q.** What about the normalised viability (HDQ-P1 [14]; 1 nM) of the same compound?
**A.** 109%

**Q.** And the drug sensitivity score (MCF-10A)?
**A.** 0

**Q.** And the drug sensitivity score (MFM-223 [15])?
**A.** 0

**Q.** And the drug sensitivity score (HCC1937 [16])?
**A.** 0

**Q.** For `CCN(CC)CCCC(C)Nc1c2ccc(Cl)cc2nc2ccc(OC)cc12` (stereo not given) [Mepacrine], which normalised viability (CAL-148 [1]; 29.7 nM) is on record?
**A.** 105%

**Q.** And the normalised viability (CAL-148 [1]; 300 nM)?
**A.** 102%

**Q.** What about the normalised viability (CAL-51 [2]; 29.7 nM) of the same compound?
**A.** 86.1%

**Q.** And the normalised viability (CAL-51 [2]; 300 nM)?
**A.** 104%

**Q.** What about the normalised viability (DU-4475 [3]; 29.7 nM) of the same compound?
**A.** 88.3%

**Q.** What about the normalised viability (DU-4475 [3]; 300 nM) of the same compound?
**A.** 80.9%

**Q.** What about the normalised viability (CAL-85-1 [4]; 29.7 nM) of the same compound?
**A.** 101%

**Q.** And the normalised viability (CAL-85-1 [4]; 300 nM)?
**A.** 100%

**Q.** What about the normalised viability (MDA-MB-453 [5]; 29.7 nM) of the same compound?
**A.** 103%

**Q.** And the normalised viability (MDA-MB-453 [5]; 300 nM)?
**A.** 101%

**Q.** What about the normalised viability (HDQ-P1 [6]; 29.7 nM) of the same compound?
**A.** 117%

**Q.** And the normalised viability (HDQ-P1 [6]; 300 nM)?
**A.** 109%

**Q.** And the normalised viability (SK-BR-3; 0.099 nM)?
**A.** 100%

**Q.** And the normalised viability (SK-BR-3; 1 nM)?
**A.** 101%

**Q.** And the normalised viability (BT-474; 0.099 nM)?
**A.** 74.2%

**Q.** What about the normalised viability (BT-474; 1 nM) of the same compound?
**A.** 113%

**Q.** And the normalised viability (CAL-148 [7]; 0.099 nM)?
**A.** 115%

**Q.** And the normalised viability (CAL-148 [7]; 1 nM)?
**A.** 96.9%

**Q.** And the normalised viability (CAL-51 [8]; 0.099 nM)?
**A.** 90.8%

**Q.** What about the normalised viability (CAL-51 [8]; 1 nM) of the same compound?
**A.** 97.2%

**Q.** And the normalised viability (HCC1143; 0.099 nM)?
**A.** 108%

**Q.** And the normalised viability (HCC1143; 1 nM)?
**A.** 98.1%

**Q.** What about the normalised viability (MDA-MB-231; 0.099 nM) of the same compound?
**A.** 95.4%

**Q.** What about the normalised viability (MDA-MB-231; 1 nM) of the same compound?
**A.** 101%

**Q.** What about the normalised viability (DU-4475 [9]; 0.099 nM) of the same compound?
**A.** 93.5%

**Q.** What about the normalised viability (DU-4475 [9]; 1 nM) of the same compound?
**A.** 111%

**Q.** And the normalised viability (BT-549; 0.099 nM)?
**A.** 96.1%

**Q.** And the normalised viability (BT-549; 1 nM)?
**A.** 86.5%

**Q.** And the normalised viability (CAL-85-1 [10]; 0.099 nM)?
**A.** 101%

**Q.** And the normalised viability (CAL-85-1 [10]; 1 nM)?
**A.** 94.5%

**Q.** What about the normalised viability (HCC1599; 0.099 nM) of the same compound?
**A.** 102%

**Q.** What about the normalised viability (HCC1599; 1 nM) of the same compound?
**A.** 96.2%

**Q.** And the normalised viability (MDA-MB-453 [11]; 0.099 nM)?
**A.** 98%

**Q.** And the normalised viability (MDA-MB-453 [11]; 1 nM)?
**A.** 106%

**Q.** What about the normalised viability (MDA-MB-436; 0.099 nM) of the same compound?
**A.** 112%

**Q.** And the normalised viability (MDA-MB-436; 1 nM)?
**A.** 101%

**Q.** What about the normalised viability (Hs578T; 0.099 nM) of the same compound?
**A.** 113%

**Q.** What about the normalised viability (Hs578T; 1 nM) of the same compound?
**A.** 127%

**Q.** And the normalised viability (MFM-223 [12]; 0.099 nM)?
**A.** 103%

**Q.** What about the normalised viability (MFM-223 [12]; 1 nM) of the same compound?
**A.** 96%

**Q.** And the normalised viability (MDA-MB-468; 0.099 nM)?
**A.** 108%

**Q.** And the normalised viability (MDA-MB-468; 1 nM)?
**A.** 101%

**Q.** And the normalised viability (CAL-120; 0.099 nM)?
**A.** 114%

**Q.** What about the normalised viability (CAL-120; 1 nM) of the same compound?
**A.** 97.7%

**Q.** And the normalised viability (HCC1937 [13]; 0.099 nM)?
**A.** 94.7%

**Q.** What about the normalised viability (HCC1937 [13]; 1 nM) of the same compound?
**A.** 86%

**Q.** And the normalised viability (HDQ-P1 [14]; 0.099 nM)?
**A.** 115%

**Q.** What about the normalised viability (HDQ-P1 [14]; 1 nM) of the same compound?
**A.** 108%

**Q.** What about the drug sensitivity score (MCF-10A) of the same compound?
**A.** 0

**Q.** And the drug sensitivity score (MFM-223 [15])?
**A.** 0

**Q.** And the drug sensitivity score (HCC1937 [16])?
**A.** 0

**Q.** What does the source list for `CC[C@@H]1C(=O)N(C)c2cnc(Nc3ccc(C(=O)NC4CCN(C)CC4)cc3OC)nc2N1C1CCCC1` [BI 2536]?
**A.** normalised viability (CAL-148 [1]; 30 nM): 25.5%; normalised viability (CAL-51 [2]; 30 nM): 25.8%; normalised viability (DU-4475 [3]; 30 nM): 18.1%; normalised viability (CAL-85-1 [4]; 30 nM): 45.3%; normalised viability (MDA-MB-453 [5]; 30 nM): 28.4%; normalised viability (HDQ-P1 [6]; 30 nM): 43.6%; normalised viability (SK-BR-3; 0.1 nM): 98.5%; normalised viability (BT-474; 0.1 nM): 101%; normalised viability (CAL-148 [7]; 0.1 nM): 98%; normalised viability (CAL-51 [8]; 0.1 nM): 89.5%; normalised viability (HCC1143; 0.1 nM): 109%; normalised viability (MDA-MB-231; 0.1 nM): 105%; normalised viability (DU-4475 [9]; 0.1 nM): 109%; normalised viability (BT-549; 0.1 nM): 115%; normalised viability (CAL-85-1 [10]; 0.1 nM): 96.3%; normalised viability (HCC1599; 0.1 nM): 83.2%; normalised viability (MDA-MB-453 [11]; 0.1 nM): 94.7%; normalised viability (MDA-MB-436; 0.1 nM): 112%; normalised viability (Hs578T; 0.1 nM): 122%; normalised viability (MFM-223 [12]; 0.1 nM): 99%; normalised viability (MDA-MB-468; 0.1 nM): 114%; normalised viability (CAL-120; 0.1 nM): 91.8%; normalised viability (HCC1937 [13]; 0.1 nM): 86.5%; normalised viability (HDQ-P1 [14]; 0.1 nM): 94%; drug sensitivity score (MCF-10A): 10.3; drug sensitivity score (MFM-223 [15]): 6.01; drug sensitivity score (HCC1937 [16]): 0
